From ChEMBL document CHEMBL4265943, “Design and synthesis of potent dual inhibitors of JAK2 and HDAC based on fusing the pharmacophores of XL019 and vorinostat” (Eur J Med Chem, 2018)

Legend:
[1] = Selectivity index, ratio of CC50 for human AC10 cells to IC50 for human MDA-MB-231 cells; assay type: toxicity; settings: AC10 cells (CC50) and MDA-MB-231 cells (IC50)
[2] = Selectivity index, ratio of CC50 for mouse TAMH cells to IC50 for human HCT116 cells; assay type: toxicity; settings: TAMH cells (CC50) and HCT116 cells (IC50)
[3] = Selectivity index, ratio of CC50 for mouse TAMH cells to IC50 for human MDA-MB-231 cells; assay type: toxicity; settings: TAMH cells (CC50) and MDA-MB-231 cells (IC50)
[4] = Selectivity index, ratio of CC50 for human AC10 cells to IC50 for human PC3 cells; assay type: toxicity; settings: AC10 cells (CC50) and PC3 cells (IC50)
[5] = Antiproliferative activity against human AC10 cells after 72 hrs by MTT assay; assay type: cell-based
[6] = molecular target: Tyrosine-protein kinase JAK2 (Homo sapiens, UniProt O60674); test: Inhibition of human JAK2 using poly(Glu:Tyr)(4:1) as substrate preincubated for 20 mins followed by [gamma33P]ATP addition measured after 120 mins by ion exchange filter paper method
[7] = molecular target: T1, Protein deacetylase HDAC6 (Homo sapiens, UniProt Q9UBN7); test: Inhibition of HDAC6 (unknown origin) using Arg-His-Lys-Lys(Ac) as substrate preincubated with enzyme followed by substrate addition for 2 hrs and measured for 1.5 hrs at 15 mins time interval by fluorescence assay
T1 sequence (Q9UBN7 whole entry): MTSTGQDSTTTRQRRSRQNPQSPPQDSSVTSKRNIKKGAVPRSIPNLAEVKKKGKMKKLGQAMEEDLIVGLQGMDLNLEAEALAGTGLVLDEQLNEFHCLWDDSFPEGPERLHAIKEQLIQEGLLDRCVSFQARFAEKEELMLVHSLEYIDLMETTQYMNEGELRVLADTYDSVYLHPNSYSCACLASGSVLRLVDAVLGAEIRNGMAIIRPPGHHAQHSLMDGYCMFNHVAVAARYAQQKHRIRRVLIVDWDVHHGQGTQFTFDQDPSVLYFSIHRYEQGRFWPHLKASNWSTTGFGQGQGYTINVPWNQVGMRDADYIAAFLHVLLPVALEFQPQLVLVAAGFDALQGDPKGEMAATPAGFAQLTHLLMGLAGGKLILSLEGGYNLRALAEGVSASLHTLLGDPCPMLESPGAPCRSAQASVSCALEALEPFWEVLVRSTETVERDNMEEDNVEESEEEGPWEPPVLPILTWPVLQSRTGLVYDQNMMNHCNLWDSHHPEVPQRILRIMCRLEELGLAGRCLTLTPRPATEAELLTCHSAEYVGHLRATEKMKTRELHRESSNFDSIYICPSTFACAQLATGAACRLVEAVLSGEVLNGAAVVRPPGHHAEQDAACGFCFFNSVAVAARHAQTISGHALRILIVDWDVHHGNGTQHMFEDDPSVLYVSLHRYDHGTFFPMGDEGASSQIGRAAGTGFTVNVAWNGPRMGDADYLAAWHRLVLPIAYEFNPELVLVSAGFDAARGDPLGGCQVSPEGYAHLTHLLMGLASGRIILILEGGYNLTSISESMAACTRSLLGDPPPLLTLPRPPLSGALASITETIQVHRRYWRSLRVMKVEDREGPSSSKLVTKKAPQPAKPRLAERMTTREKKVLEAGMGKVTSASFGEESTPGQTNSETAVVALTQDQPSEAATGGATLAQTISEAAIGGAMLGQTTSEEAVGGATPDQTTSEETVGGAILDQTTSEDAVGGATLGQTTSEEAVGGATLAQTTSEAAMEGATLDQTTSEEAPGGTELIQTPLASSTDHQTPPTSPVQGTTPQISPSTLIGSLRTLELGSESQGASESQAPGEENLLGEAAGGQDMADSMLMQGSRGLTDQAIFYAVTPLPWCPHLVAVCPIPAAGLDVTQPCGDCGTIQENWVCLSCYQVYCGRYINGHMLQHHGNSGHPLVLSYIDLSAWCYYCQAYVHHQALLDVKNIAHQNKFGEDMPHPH

[8] = Selectivity index, ratio of CC50 for human AC10 cells to IC50 for human HCT116 cells; assay type: toxicity; settings: AC10 cells (CC50) and HCT116 cells (IC50)
[9] = Selectivity index, ratio of CC50 for mouse TAMH cells to IC50 for human PC3 cells; assay type: toxicity; settings: TAMH cells (CC50) and PC3 cells (IC50)
[10] = Selectivity index, ratio of CC50 for mouse TAMH cells to IC50 for human MCF7 cells; assay type: toxicity; settings: TAMH cells (CC50) and MCF7 cells (IC50)
[11] = Selectivity index, ratio of CC50 for human AC10 cells to IC50 for human MCF7 cells; assay type: toxicity; settings: AC10 cells (CC50) and MCF7 cells (IC50)
[12] = Antiproliferative activity against mouse TAMH cells after 72 hrs by MTT assay; assay type: cell-based
Histone deacetylase 1 = Histone deacetylase 1 (Homo sapiens, UniProt Q13547); test: Inhibition of HDAC1 (unknown origin) using Arg-His-Lys-Lys(Ac) as substrate preincubated with enzyme followed by substrate addition for 2 hrs and measured for 1.5 hrs at 15 mins time interval by fluorescence assay
PC-3 = test: Antiproliferative activity against human PC3 cells after 72 hrs by MTT assay; assay type: functional, cell-based; settings: PC-3, 72 h
MDA-MB-231 = test: Antiproliferative activity against human MDA-MB-231 cells after 72 hrs by MTT assay; assay type: functional, cell-based; settings: MDA-MB-231, 72 h
MCF7 = test: Antiproliferative activity against human MCF7 cells after 72 hrs by MTT assay; assay type: functional, cell-based; settings: MCF7, 72 h
HCT-116 = test: Antiproliferative activity against human HCT116 cells after 72 hrs by MTT assay; assay type: functional, cell-based; settings: HCT-116, 72 h
HEL 92.1.7 = test: cells; assay type: functional, cell-based; settings: Homo sapiens, HEL 92.1.7, 72 h
Description: Antiproliferative activity against human HEL 92.1.7 cells after 72 hrs by MTT assay

Jurkat = test: Antiproliferative activity against human Jurkat cells after 72 hrs by MTT assay; assay type: functional, cell-based

Chain of Tyrosine-protein kinase JAK2 (O60674 whole entry): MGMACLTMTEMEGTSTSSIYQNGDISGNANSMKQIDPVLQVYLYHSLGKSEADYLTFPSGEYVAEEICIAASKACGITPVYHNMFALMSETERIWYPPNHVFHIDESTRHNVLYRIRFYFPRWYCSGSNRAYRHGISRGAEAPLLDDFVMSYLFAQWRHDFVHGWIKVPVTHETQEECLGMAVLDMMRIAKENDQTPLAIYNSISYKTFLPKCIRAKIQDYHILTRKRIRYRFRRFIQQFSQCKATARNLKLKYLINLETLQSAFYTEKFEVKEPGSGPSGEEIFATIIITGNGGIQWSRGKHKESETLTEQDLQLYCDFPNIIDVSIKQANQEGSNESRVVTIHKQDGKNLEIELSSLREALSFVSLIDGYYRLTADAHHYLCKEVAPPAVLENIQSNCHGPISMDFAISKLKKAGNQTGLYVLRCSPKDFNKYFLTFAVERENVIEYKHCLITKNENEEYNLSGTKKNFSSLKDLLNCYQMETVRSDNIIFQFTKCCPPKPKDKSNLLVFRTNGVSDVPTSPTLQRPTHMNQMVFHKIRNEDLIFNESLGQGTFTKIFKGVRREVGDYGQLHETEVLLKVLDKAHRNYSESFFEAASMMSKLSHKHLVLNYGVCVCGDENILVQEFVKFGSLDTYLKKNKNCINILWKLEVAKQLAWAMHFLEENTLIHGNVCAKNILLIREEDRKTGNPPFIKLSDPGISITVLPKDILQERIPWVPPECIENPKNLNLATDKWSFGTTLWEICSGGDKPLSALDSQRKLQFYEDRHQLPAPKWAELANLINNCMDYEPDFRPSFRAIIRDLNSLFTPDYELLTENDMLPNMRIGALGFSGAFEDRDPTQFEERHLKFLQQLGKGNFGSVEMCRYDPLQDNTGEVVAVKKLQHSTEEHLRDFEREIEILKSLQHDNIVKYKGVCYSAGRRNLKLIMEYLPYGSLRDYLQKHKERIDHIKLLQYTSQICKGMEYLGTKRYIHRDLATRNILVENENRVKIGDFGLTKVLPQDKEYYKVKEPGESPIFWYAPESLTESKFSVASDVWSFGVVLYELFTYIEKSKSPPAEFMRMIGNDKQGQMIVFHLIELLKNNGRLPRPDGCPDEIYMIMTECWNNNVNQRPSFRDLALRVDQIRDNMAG
Chain of Histone deacetylase 1 (Q13547 whole entry): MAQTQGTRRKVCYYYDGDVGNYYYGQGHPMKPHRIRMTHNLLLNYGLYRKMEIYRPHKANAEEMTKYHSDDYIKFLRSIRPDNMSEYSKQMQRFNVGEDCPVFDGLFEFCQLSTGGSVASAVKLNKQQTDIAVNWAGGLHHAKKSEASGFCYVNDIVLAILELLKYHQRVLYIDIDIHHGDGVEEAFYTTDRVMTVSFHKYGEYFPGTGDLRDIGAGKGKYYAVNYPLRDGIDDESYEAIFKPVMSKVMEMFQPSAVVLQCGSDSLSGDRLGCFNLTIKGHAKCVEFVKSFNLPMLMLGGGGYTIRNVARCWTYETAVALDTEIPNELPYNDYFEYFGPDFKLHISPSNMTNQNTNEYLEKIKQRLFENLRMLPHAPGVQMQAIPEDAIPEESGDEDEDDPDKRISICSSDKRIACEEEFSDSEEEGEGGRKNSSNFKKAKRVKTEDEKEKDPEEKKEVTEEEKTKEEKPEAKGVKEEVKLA

SMILES | IC50 [6] [nM] | IC50 [7] [nM] | IC50 (Histone deacetylase 1) [nM] | IC50 (PC-3) [nM] | IC50 (MDA-MB-231) [nM] | IC50 (MCF7) [nM] | IC50 (HCT-116) [nM] | IC50 (HEL 92.1.7) [nM] | IC50 (Jurkat) [nM] | selectivity ratio [1] | selectivity ratio [2] | selectivity ratio [3] | selectivity ratio [4] | CC50 at 72 h [5] [nM] | selectivity ratio [8] | selectivity ratio [9] | selectivity ratio [10] | selectivity ratio [11] | CC50 at 72 h [12] [nM]
CC(=O)Nc1ccc(-c2ccnc(Nc3ccc(NC(=O)CCCCC(=O)NO)cc3)n2)cc1 | 58.3 | 117 | 3350 | 47300 | 32100 | 43400 | 65600 | – | – | – | – | – | – | – | – | – | – | – | –
CC(=O)Nc1ccc(-c2ccnc(Nc3ccc(N4CCN(C)CC4)cc3)n2)cc1 | 7.9 | – | – | – | – | – | – | – | – | – | – | – | – | – | – | – | – | – | –
O=C(CCCCCCC(=O)Nc1ccccc1)NO [VORINOSTAT] | – | – | – | – | – | 810 | – | – | – | – | – | – | – | – | – | – | – | – | –
CN1CCN(CC(=O)Nc2ccc(-c3ccnc(Nc4ccc(OCCCCCCC(=O)NO)cc4)n3)cc2)CC1 | 95.5 | 6.1 | 142 | 4090 | 3880 | 4840 | 1690 | – | – | 1.06 | 4.78 | 2.08 | 1 | 4100 | 2.43 | 1.97 | 1.67 | 0.85 | 8070
CC(=O)Nc1ccc(-c2ccnc(Nc3ccc(N4CCCCC4)cc3)n2)cc1 | 2.9 | – | – | – | – | – | – | – | – | – | – | – | – | – | – | – | – | – | –
O=C(CCCCCCOc1ccc2cc1COC/C=C/COCc1cccc(c1)-c1ccnc(n1)N2)NO | – | – | – | 1700 | – | – | – | – | – | – | – | – | – | – | – | – | – | – | –

Continued, in another order:

IC50 [6] [nM] | IC50 [7] [nM] | IC50 (Histone deacetylase 1) [nM] | IC50 (PC-3) [nM] | IC50 (MDA-MB-231) [nM] | IC50 (MCF7) [nM] | IC50 (HCT-116) [nM] | IC50 (HEL 92.1.7) [nM] | IC50 (Jurkat) [nM] | SMILES | selectivity ratio [1] | selectivity ratio [2] | selectivity ratio [3] | selectivity ratio [4] | CC50 at 72 h [5] [nM] | selectivity ratio [8] | selectivity ratio [9] | selectivity ratio [10] | selectivity ratio [11] | CC50 at 72 h [12] [nM]
6.6 | 9 | 179 | – | – | – | – | – | – | O=C(CCCCCCC(=O)Nc1ccc(-c2ccnc(Nc3cccc(N4CCCCC4)c3)n2)cc1)NO | 4.02 | 2.81 | 3.53 | 7.12 | 5340 | 3.2 | 6.25 | 4.42 | 5.04 | 4690
9.2 | 0.81 | 32.4 | 340 | 2480 | 320 | 1150 | > 10000 | > 10000 | CC(=O)Nc1ccc(-c2ccnc(Nc3cccc(NC(=O)CCCCCCC(=O)NO)c3)n2)cc1 | 12.7 | 6.36 | 8.14 | – | 19500 | 9.91 | – | – | – | 12500
– | 23 | 934 | 5580 | 2830 | 1890 | 1070 | – | – | O=C(CCCCCCC(=O)Nc1ccc(-c2ccnc(Nc3ccc(N4CCCCC4)cc3)n2)cc1)NO | – | – | – | – | 11700 | – | – | – | – | 12900
41.3 | 1.44 | 3.8 | 210 | 270 | 330 | 190 | – | – | O=C(CCCCCCC(=O)Nc1ccc(-c2ccnc(Nc3ccccc3)n2)cc1)NO | 11.2 | 38.3 | 27 | 14.3 | 3010 | 15.8 | 34.7 | 22.1 | 9.12 | 7280
